Test results from patent publication US20190152993A1, “Reversibly Switchable Surfactants and Methods of Use” (WARNER BABCOCK INSTITUTE FOR GREEN CHEMISTRY, LLC, priority 2016, published 2019).
Marks after values point to notes of the source that are not given here.

Legend:
[1] = Separate experiment: solubility of palmitic acid in hexanes with switchable surfactant activation; type: physicochemical; conditions: 1 mg/mL surfactant
Description: The second vial was exposed to 365-nm ultraviolet light that activated the surfactant; the solution turned magenta due to the color of the merocyanine.

[2] = Lifetimes (half-life) of the activated merocyanine surfactants in solvents; type: physicochemical; conditions: error limits 10-20%
Description: Lifetimes of the activated zwitterionic merocyanine isomers of compounds 4a, 4b, 4c, and 4e in several solvents were determined.
The spiropyran compound 4 was added to a solvent in a 1-cm quartz cuvette and the cuvette was irradiated with ultraviolet light at 365 nm for ˜60 seconds. […] Absorption spectra were recorded from 450 to 650 nm every 5 seconds over a 350-second observation time. The concentrations of the merocyanine were adjusted so that the initial t=0 absorbance at the absorption maximum (λmax) was in the range of 1-1.4. All kinetics experiments were done in triplicate once an appropriate spiropyran/merocyanine surfactant concentration was determined. The absorbances at λmax were normalized to the highest value, and the three data sets averaged to give the normalized absorbances as a function of time. If the normalized absorbance had dropped to at least 0.5 during the 350-s monitoring time, the half-life was taken as the time at which the normalized absorbance had reached 0.5.

[3] = in acetone, after 365 nm irradiation
[4] = in cyclohexane, after 365 nm irradiation
[5] = in ethanol, longer than 350 s monitoring, by extrapolation of exponential fit
[6] = in ethyl acetate, after 365 nm irradiation
[7] = in methanol, longer than 350 s monitoring, by extrapolation of exponential fit
[8] = in octanol, longer than 350 s monitoring, by extrapolation of exponential fit
[9] = in toluene, after 365 nm irradiation

| Compound | reversibility after UV-treated solution placed in the dark ([1]; 53 mg/mL palmitic acid) | palmitic acid dissolved with activated surfactant ([1]; 53 mg/mL palmitic acid charged, 365-nm ultraviolet light) [mg/mL] | dissolution of palmitic acid with ground-state surfactant ([1]; 53 mg/mL palmitic acid charged, kept in the dark) | Merocyanine Half-life [2, 3] [s] | Merocyanine Half-life [2, 4] [s] | Merocyanine Half-life [2, 5] [s] | Merocyanine Half-life [2, 6] [s] | Merocyanine Half-life [2, 7] | Merocyanine Half-life [2, 8] [s] | Merocyanine Half-life [2, 9] [s] |
| --- | --- | --- | --- | --- | --- | --- | --- | --- | --- | --- |
| CCCCCCCCCCCCCCCCCCN1c2ccccc2C(C)(C)C12C=Cc1cc([N+](=O)[O-])ccc1O2 (stereo not shown) [4e, 3′,3′-Dimethyl-6-nitro-1′-octadecylspiro[chromene-2,2′-indoline]] | precipitate began to form | 53 | not fully dissolved | – | – | – | – | – | – | – |
| C[N+]1=C(/C=C/c2cc([N+](=O)[O-])ccc2[O-])C(C)(C)c2ccccc21 [5a] | – | – | – | 103 | 14 | 1200 | 19 | 4900 s | 610 | 16 |
| CCCCCCCCCCCCCCCCCC[N+]1=C(/C=C/c2cc([N+](=O)[O-])ccc2[O-])C(C)(C)c2ccccc21 [5e] | – | – | – | 114 | 40 | 1450 | 20 | 11000 s | 830 | 49 |

Now from value to molecule:

| reversibility after UV-treated solution placed in the dark ([1]; 53 mg/mL palmitic acid) | palmitic acid dissolved with activated surfactant ([1]; 53 mg/mL palmitic acid charged, 365-nm ultraviolet light) [mg/mL] | dissolution of palmitic acid with ground-state surfactant ([1]; 53 mg/mL palmitic acid charged, kept in the dark) | Merocyanine Half-life [2, 3] [s] | Merocyanine Half-life [2, 4] [s] | Merocyanine Half-life [2, 5] [s] | Merocyanine Half-life [2, 6] [s] | Merocyanine Half-life [2, 7] | Merocyanine Half-life [2, 8] [s] | Merocyanine Half-life [2, 9] [s] | Compound |
| --- | --- | --- | --- | --- | --- | --- | --- | --- | --- | --- |
| – | – | – | 130 | 44 | 1300 | 23 | 23000 s | 610 | 32 | CCCC[N+]1=C(/C=C/c2cc([N+](=O)[O-])ccc2[O-])C(C)(C)c2ccccc21 [5b] |
| – | – | – | 153 | 40 | 1500 | 20 | >10^4‡ seconds | 610 | 38 | CCCCCCCC[N+]1=C(/C=C/c2cc([N+](=O)[O-])ccc2[O-])C(C)(C)c2ccccc21 [5c] |
